# Values joined by “and” are separate entries in the source; they are usually repeats but may differ in a detail not shown here. Identical values can stand only once. Marks after values point to notes of the source that are not given here. Ends that are not written are not given here.
# Assays:
# Helicobacter pylori [1] = experiment: germicidal suspension assay; details: nisin 0 or 100 µg/ml, 37°C
# [2] = system: Campylobacter jejuni ATCC29428; experiment: germicidal suspension assay; details: nisin 0 or 100 µg/ml, 37°C
# Escherichia coli = experiment: germicidal suspension assay of chelator-enhanced nisin in acid vehicles; type: cell-based; details: for % survival at 1 min: 37°C
# Protocol: The rapid activities of various chelator-enhanced nisin formulations were evaluated in acid vehicles in a germicidal suspension assay.
# E. coli cells from an overnight Trypticase soy nutrient agar (TSA) were resuspended to a density measured as an absorbance of 1.0 at 600 nm in sterile ddH2O. The reaction of the cells with each of the bactericidal test formulations analyzed was started by addition of 30 µl of cells to 970 µl of test formulation. The reaction mixture was incubated at 37°C for at least 1 minute and then centrifuged in a microfuge for 1 minute. The cell pellet was washed by resuspension in 1 ml of neutralization buffer. (The neutralization buffer: 50 mM Tris-HCl, pH 7.0, 5 mM MgSO4, 20 mM CaC12, 0.1 M NaCl and 0.1% gelatin was prepared by first making Tris buffer and adjusting the pH. The salts and gelatin were then added and the solution stirred with heat until the solution was clear. The solution was then autoclaved for 20 min. The neutralization buffer was used without dilution.) The cells were centrifuged in a microfuge for 1 minute and resuspended in 1 ml of neutralization buffer. The viable count was determined by spreading 100 µl of bacterial suspension and serial dilutions thereof in neutralization buffer on nutrient agar and scoring surviving colonies after 24 h at 37°C. Percent survival relative to untreated controls was calculated from the scored values.
# In Table 1 and subsequent Tables 2, 4 and 8-13 values preceded by "<" represent the percent survival figures, based on the initial concentration of viable bacteria (expressed as colony forming units (cfu) /ml) in the assayed bacterial suspension and the aliquot volume of said suspension taken for assay, corresponding to the detection of no surviving colonies.
# E. coli strain ATCC8739 = experiment: nisin-citrate agar assay (growth inhibition on nutrient agar); type: cell-based
# Description: However, nisin in the presence of citrate is active against gram negative bacteria. […] This nisin-citrate agar assay has much more general applicability. The assay provides a method for screening potential agents other than citrate in combination with nisin for their potential properties as enhancers of nisin's inherent bactericidal activity. Examples of other organic acids in combination with nisin would include acetate, propionate, lactate, succinate, fumarate, malonate, adipate, sorbate, phosphate and ascorbate.
# The nisin-citrate agar assay is performed as follows. E. coli is resuspended to an optical density of 1.0 at A600. A 100 µl sample of the bacterial suspension is spread uniformly on Trypticase Soy nutrient agar (TSA) supplemented with various concentrations of citrate (eg. 0.1%, 0.3%, 1.0%, 3.0%) and incubated for 1 hour at 37°C. A nisin stock solution and serial dilutions thereof in 0.1% bovine serum albumin (BSA), are prepared and 5 µl are taken from each and deposited onto the growing bacterial lawn. The TSA plates are then incubated for 24 hours at 37°C. After 24 hours at 37°C, E. coli grown on TSA supplemented with citrate form a confluent lawn. […] The effectiveness of nisin against the gram negative bacteria can be assessed from determining the minimum amount of nisin required to produce a clear zone of growth inhibition. As the concentration of citrate in the nutrient agar is increased, less nisin is required to inhibit the growth of E. coli, as is illustrated by the data shown in Table 6.
# Helicobacter pylori [3] = experiment: germicidal suspension assay; type: cell-based; details: 37°C
# [4] = system: Campylobacter jejuni ATCC29428; experiment: germicidal suspension assay; type: cell-based; details: for % survival at 5 min: pH 5.0, nisin 100 µg/ml, 37°C
molecule,measurement,setting,value
O=C(O)CC(O)(CC(=O)O)C(=O)O [Citrate],% survival at 5 min,"Helicobacter pylori [1]; strain ATCC 43504, 0.1% citrate adjusted to pH 5.0",68.5^d %
same,% survival at 5 min,"Helicobacter pylori [1]; strain ATCC 43504, 0.3% citrate adjusted to pH 5.0",100^e %
same,% survival at 5 min,"Helicobacter pylori [1]; strain ATCC 43579, 0.1% citrate adjusted to pH 2.5",<5.0x10^-4%
same,% survival at 5 min,"Helicobacter pylori [1]; strain ATCC 43579, 0.1% citrate adjusted to pH 3.0",1.1x10^-3%
same,% survival at 5 min,"Helicobacter pylori [1]; strain ATCC 43579, 0.1% citrate adjusted to pH 5.0",97.2^b %
same,% survival at 5 min,[2]; 0.3 % w/v citrate pH 5.0,<6.4x10^-3%
same,% survival at 5 min,[2]; 1.0 % w/v citrate pH 5.0,<6.4x10^-3%
"nisin (ITSISLCTPGCKTGALMGCNMKTATCHCSIHVSK; also: lantibiotic nisin A: thioether rings and dehydrated residues not placed; UniProt P13068 24-57, looked up) [lanthionine-containing bacteriocin]",% survival at 1 min,"Escherichia coli; 0.1 % w/v acetate pH 3.5, nisin 100 µg/ml and/or EDTA 1.0 mM, or acetate alone",9.6%
same,% survival at 1 min,"Escherichia coli; 0.1 % w/v lactate pH 3.5, nisin 100 µg/ml and/or EDTA 1.0 mM, or lactate alone",4.4%
same,% survival at 1 min,"Escherichia coli; 0.1 % w/v succinate pH 3.5, nisin 100 µg/ml and/or EDTA 1.0 mM, or succinate alone",18.3%
same,% survival at 1 min,"Escherichia coli; 0.3 % w/v acetate pH 3.5, nisin 100 µg/ml and/or EDTA 1.0 mM, or acetate alone",70%
same,% survival at 1 min,"Escherichia coli; 0.3 % w/v lactate pH 3.5, nisin 100 µg/ml and/or EDTA 1.0 mM, or lactate alone",0.24%
same,% survival at 1 min,"Escherichia coli; 0.3 % w/v succinate pH 3.5, nisin 100 µg/ml and/or EDTA 1.0 mM, or succinate alone",66.6%
same,% survival at 1 min,"Escherichia coli; 1.0 % w/v acetate pH 3.5, nisin 100 µg/ml and/or EDTA 1.0 mM, or acetate alone",100%
same,% survival at 1 min,"Escherichia coli; 1.0 % w/v lactate pH 3.5, nisin 100 µg/ml and/or EDTA 1.0 mM, or lactate alone",17.8%
same,% survival at 1 min,"Escherichia coli; 1.0 % w/v succinate pH 3.5, nisin 100 µg/ml and/or EDTA 1.0 mM, or succinate alone",83.4%
same,% survival at 1 min,"Escherichia coli; 3.0 % w/v acetate pH 3.5, nisin 100 µg/ml and/or EDTA 1.0 mM, or acetate alone",100%
same,% survival at 1 min,"Escherichia coli; 3.0 % w/v lactate pH 3.5, nisin 100 µg/ml and/or EDTA 1.0 mM, or lactate alone",26.7%
same,% survival at 1 min,"Escherichia coli; 3.0 % w/v succinate pH 3.5, nisin 100 µg/ml and/or EDTA 1.0 mM, or succinate alone",28.4%
same,survival of E. coli on exposure to the agent by itself,Escherichia coli; each agent by itself,unaffected
same,% survival at 1 min,"Escherichia coli; pH 2.0, 20 mM Na acetate buffer, nisin 100 µg/ml and/or EDTA 1.0 mM",0.28%
same,% survival at 1 min,"Escherichia coli; pH 2.5, 20 mM Na acetate buffer, nisin 100 µg/ml and/or EDTA 1.0 mM",3.37%
same,% survival at 1 min,"Escherichia coli; pH 3.0, 20 mM Na acetate buffer, nisin 100 µg/ml and/or EDTA 1.0 mM",4.43%
same,% survival at 1 min,"Escherichia coli; pH 3.5, 20 mM Na acetate buffer, nisin 100 µg/ml and/or EDTA 1.0 mM",100%
same,% survival at 1 min,"Escherichia coli; pH 4.0, 20 mM Na acetate buffer, nisin 100 µg/ml and/or EDTA 1.0 mM",100%
same,Nisin NIC (nominal inhibitory concentration of nisin minimally required to prevent growth),E. coli strain ATCC8739; Trypticase Soy Agar supplemented with 0.1% citrate,370 µg/mL
same,Nisin NIC (nominal inhibitory concentration of nisin minimally required to prevent growth),E. coli strain ATCC8739; Trypticase Soy Agar supplemented with 0.3% citrate,123 µg/mL
same,Nisin NIC (nominal inhibitory concentration of nisin minimally required to prevent growth),E. coli strain ATCC8739; Trypticase Soy Agar supplemented with 1.0% citrate,13.7 µg/mL
same,Nisin NIC (nominal inhibitory concentration of nisin minimally required to prevent growth),E. coli strain ATCC8739; Trypticase Soy Agar supplemented with 3.0% citrate,0.06 µg/mL
same,Nisin NIC (nominal inhibitory concentration of nisin minimally required to prevent growth),E. coli strain ATCC8739; Trypticase Soy Agar with 0% citrate,"3,333 µg/ml"
same,% survival at 5 min,"Helicobacter pylori [3]; strain ATCC 43504, EDTA 0, nisin 100 µg/ml, pH 5.0, incubated in presence of 20 mM acetate",7.03^e %
same,% survival at 5 min,"Helicobacter pylori [3]; strain ATCC 43504, citrate 0, nisin 100 µg/ml, 20 mM acetate, pH 5.0, two experiments (initial count 2.7 x 10^5 and 3.7 x 10^4 cfu/ml)",0.69^d % and 4.86^e %
same,% survival at 5 min,"Helicobacter pylori [3]; strain ATCC 43504, pH 5.0, citrate 0, nisin 100 µg/ml",0.043%
same,% survival at 5 min,"Helicobacter pylori [3]; strain ATCC 43504, pH 7.0, citrate 0, nisin 100 µg/ml",2.08%
same,% survival at 5 min,"Helicobacter pylori [3]; strain ATCC 43526, pH 7.0, EDTA 0, nisin 100 µg/ml",5.88%
same,% survival at 5 min,"Helicobacter pylori [3]; strain ATCC 43579, citrate 0, nisin 100 µg/ml, 20 mM acetate, pH 5.0, average of 5 experiments",0.30^c %
same,% survival at 5 min,"Helicobacter pylori [3]; strain ATCC 43579, citrate 0, nisin 100 µg/ml, 20 mM acetate, pH 5.0, single experiment",8.6x10^-3 ^e %
same,% survival at 5 min,"Helicobacter pylori [3]; strain ATCC 43579, nisin 10 µg/ml, without or with 0.1% citrate pH 5.0",1.41%
same,% survival at 5 min,"Helicobacter pylori [3]; strain ATCC 43579, nisin 30 µg/ml, without or with 0.1% citrate pH 5.0",0.39%
same,% survival at 5 min,"Helicobacter pylori [3]; strain ATCC 43579, nisin 100 µg/ml, without or with 0.1% citrate pH 5.0",0.085%
same,% survival at 5 min,"Helicobacter pylori [3]; strain ATCC 43579, nisin 300 µg/ml, without or with 0.1% citrate pH 5.0",0.0056%
same,% survival at 5 min,"Helicobacter pylori [3]; strain ATCC 43579, pH 5.0, EDTA 0, nisin 100 µg/ml",4.7%
same,% survival at 5 min,"Helicobacter pylori [3]; strain ATCC 43579, pH 5.0, citrate 0, nisin 100 µg/ml",9.62%
same,% survival at 5 min,"Helicobacter pylori [3]; strain ATCC 43579, pH 7.0, citrate 0, nisin 100 µg/ml",0.78%
same,% survival at 5 min,[4]; EDTA 0,<5.0x10^-4%
same,% survival at 5 min,[4]; citrate 0,<6.4x10^-3%
same,effectiveness towards C. jejuni,[4]; nisin by itself,extremely effective
